Columns and labels:
[1] = test system: Tyrosine-protein kinase ABL1 (Homo sapiens), P00519 [F317I]
[2] = target: T1, Mitogen-activated protein kinase kinase kinase 5 (Homo sapiens) (UniProt Q99683)
T1 sequence (whole entry): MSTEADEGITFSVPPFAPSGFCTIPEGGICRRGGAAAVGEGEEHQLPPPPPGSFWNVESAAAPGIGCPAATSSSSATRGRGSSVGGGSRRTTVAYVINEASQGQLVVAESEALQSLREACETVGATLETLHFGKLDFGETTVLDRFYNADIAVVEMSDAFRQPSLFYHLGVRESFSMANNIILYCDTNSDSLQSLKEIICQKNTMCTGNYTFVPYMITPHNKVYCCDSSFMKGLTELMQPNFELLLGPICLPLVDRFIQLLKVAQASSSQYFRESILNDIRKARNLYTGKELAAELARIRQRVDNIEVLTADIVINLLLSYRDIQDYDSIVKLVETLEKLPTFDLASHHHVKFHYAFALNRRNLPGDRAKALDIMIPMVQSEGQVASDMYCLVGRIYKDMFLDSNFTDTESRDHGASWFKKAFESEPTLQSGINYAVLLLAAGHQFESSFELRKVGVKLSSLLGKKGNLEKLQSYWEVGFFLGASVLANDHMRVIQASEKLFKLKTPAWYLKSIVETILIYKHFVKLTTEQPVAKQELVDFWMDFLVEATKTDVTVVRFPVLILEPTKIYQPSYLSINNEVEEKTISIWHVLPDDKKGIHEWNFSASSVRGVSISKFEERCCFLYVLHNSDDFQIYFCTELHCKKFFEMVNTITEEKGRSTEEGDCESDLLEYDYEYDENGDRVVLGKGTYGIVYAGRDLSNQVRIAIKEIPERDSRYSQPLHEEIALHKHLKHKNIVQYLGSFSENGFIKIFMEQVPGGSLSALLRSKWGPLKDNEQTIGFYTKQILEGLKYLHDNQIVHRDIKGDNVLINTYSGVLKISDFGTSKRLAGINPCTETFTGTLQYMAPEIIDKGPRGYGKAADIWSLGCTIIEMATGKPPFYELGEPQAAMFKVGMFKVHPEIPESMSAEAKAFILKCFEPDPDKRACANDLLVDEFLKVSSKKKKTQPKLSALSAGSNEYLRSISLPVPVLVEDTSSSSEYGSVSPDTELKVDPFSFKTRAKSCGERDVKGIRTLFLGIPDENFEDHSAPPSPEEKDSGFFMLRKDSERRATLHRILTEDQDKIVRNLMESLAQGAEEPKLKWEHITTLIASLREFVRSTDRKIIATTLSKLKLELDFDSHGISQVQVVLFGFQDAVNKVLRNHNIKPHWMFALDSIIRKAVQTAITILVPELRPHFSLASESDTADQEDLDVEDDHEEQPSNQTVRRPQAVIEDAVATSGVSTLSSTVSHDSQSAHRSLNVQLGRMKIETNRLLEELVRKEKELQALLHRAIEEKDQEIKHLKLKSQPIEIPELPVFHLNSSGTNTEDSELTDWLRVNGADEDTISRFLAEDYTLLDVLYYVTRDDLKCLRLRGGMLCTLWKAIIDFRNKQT

[3] = target: Cyclin-dependent kinase 11A (Homo sapiens) (UniProt Q9UQ88)
[4] = target: Casein kinase I isoform delta (Homo sapiens) (UniProt P48730)
[5] = target: Casein kinase I isoform gamma-2 (Homo sapiens) (UniProt P78368)
[6] = target: Death-associated protein kinase 2 (Homo sapiens) (UniProt Q9UIK4)
[7] = target: Insulin receptor (Homo sapiens) (UniProt P06213)
[8] = target: Mitogen-activated protein kinase kinase kinase 11 (Homo sapiens) (UniProt Q16584)
[9] = target: Myosin light chain kinase family member 4 (Homo sapiens) (UniProt Q86YV6)
[10] = target: Phosphatidylinositol 4-phosphate 5-kinase type-1 alpha (Homo sapiens) (UniProt Q99755)
[11] = target: Phosphatidylinositol 5-phosphate 4-kinase type-2 beta (Homo sapiens) (UniProt P78356)
[12] = test system: Proto-oncogene tyrosine-protein kinase receptor Ret (Homo sapiens), P07949 [M918T]
[13] = target: Serine/threonine-protein kinase SIK1 (Homo sapiens) (UniProt P57059)
[14] = target: Serine/threonine-protein kinase WNK2 (Homo sapiens) (UniProt Q9Y3S1)
[15] = target: 5-hydroxytryptamine receptor 5A (Homo sapiens) (UniProt P47898); conditions: Compound concentration 10.0 uM
[16] = target: Sodium-dependent serotonin transporter (Homo sapiens) (UniProt P31645); conditions: Compound concentration 10.0 uM
[17] = Compound concentration 100.0 nM
[18] = Compound concentration 1000.0 nM

Chain of Cyclin-dependent kinase 11A (Homo sapiens) (Q9UQ88 whole entry, canonical isoform): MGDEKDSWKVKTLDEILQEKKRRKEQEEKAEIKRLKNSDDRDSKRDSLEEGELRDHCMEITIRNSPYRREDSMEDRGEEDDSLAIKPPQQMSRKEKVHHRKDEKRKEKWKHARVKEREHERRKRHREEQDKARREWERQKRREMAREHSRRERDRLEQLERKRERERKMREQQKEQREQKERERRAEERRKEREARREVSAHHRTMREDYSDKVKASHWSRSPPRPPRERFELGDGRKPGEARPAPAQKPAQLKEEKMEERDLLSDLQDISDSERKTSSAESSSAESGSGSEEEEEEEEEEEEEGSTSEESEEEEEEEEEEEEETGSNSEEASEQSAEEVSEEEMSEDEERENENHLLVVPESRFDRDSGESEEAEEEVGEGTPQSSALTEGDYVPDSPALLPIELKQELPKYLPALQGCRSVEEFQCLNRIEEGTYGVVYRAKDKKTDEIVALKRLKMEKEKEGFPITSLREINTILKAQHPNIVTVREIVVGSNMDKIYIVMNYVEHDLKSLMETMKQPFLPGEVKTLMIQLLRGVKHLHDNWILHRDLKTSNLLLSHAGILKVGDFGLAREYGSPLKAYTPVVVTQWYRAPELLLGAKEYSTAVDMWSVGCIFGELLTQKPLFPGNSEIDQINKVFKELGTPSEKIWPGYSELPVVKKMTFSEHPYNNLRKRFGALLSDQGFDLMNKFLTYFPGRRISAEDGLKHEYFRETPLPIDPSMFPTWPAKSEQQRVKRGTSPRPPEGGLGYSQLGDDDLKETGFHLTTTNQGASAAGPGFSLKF
Chain of Serine/threonine-protein kinase WNK2 (Homo sapiens) (Q9Y3S1 whole entry): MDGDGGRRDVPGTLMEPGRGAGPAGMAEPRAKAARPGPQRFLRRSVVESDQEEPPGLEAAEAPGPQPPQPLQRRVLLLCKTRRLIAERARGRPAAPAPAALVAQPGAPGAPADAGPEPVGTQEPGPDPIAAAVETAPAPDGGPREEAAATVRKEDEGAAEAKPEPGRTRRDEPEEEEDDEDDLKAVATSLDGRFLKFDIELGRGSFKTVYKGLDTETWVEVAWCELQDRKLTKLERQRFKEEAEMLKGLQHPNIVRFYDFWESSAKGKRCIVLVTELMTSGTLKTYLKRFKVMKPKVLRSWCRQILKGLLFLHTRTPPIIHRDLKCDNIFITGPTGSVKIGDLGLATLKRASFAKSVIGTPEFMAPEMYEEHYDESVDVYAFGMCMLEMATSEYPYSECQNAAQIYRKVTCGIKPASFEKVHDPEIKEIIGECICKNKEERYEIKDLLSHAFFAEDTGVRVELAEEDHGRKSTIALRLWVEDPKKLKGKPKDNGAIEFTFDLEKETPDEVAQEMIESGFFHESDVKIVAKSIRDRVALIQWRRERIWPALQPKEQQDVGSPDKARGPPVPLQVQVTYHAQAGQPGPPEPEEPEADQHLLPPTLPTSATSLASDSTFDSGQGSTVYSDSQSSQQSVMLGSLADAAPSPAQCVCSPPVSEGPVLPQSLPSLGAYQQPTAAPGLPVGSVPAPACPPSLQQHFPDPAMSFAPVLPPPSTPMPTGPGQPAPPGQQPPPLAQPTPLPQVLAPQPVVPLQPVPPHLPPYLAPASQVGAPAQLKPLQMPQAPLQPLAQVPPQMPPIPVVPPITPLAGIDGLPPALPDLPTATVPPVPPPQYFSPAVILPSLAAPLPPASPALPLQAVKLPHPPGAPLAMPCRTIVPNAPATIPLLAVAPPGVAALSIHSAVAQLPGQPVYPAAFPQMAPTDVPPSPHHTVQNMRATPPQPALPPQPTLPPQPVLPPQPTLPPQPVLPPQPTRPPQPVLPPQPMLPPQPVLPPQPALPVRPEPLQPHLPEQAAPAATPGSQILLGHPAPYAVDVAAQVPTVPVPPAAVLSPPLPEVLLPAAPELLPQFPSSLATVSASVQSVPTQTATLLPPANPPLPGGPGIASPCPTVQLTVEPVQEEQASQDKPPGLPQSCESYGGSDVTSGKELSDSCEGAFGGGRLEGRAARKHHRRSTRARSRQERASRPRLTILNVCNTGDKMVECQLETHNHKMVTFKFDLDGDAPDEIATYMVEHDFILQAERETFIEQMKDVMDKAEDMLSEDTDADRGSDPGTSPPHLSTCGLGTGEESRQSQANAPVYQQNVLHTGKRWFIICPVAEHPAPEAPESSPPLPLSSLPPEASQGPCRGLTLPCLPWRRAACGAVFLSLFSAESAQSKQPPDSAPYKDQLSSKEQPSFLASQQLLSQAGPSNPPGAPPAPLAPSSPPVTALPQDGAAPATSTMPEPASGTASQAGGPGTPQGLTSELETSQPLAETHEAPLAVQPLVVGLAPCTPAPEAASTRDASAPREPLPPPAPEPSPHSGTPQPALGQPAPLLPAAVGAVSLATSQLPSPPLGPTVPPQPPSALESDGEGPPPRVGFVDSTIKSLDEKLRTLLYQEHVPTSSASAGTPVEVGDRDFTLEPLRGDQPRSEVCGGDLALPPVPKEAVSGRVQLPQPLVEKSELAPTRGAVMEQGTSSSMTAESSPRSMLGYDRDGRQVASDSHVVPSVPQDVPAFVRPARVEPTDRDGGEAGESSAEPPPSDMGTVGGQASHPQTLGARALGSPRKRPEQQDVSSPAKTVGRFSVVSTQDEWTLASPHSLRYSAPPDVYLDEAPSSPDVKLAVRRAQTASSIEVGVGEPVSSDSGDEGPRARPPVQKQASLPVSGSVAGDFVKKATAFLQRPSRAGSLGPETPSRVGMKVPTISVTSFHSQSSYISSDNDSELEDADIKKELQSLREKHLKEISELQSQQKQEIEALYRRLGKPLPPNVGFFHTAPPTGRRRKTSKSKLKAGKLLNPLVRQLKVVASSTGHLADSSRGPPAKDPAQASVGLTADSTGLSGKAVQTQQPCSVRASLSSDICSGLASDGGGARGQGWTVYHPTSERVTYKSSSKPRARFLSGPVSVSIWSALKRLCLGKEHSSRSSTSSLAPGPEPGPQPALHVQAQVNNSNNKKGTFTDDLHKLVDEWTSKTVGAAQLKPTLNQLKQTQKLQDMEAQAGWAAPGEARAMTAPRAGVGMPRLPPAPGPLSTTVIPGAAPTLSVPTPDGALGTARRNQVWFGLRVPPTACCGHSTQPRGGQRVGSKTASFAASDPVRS
Chain of Tyrosine-protein kinase ABL1 (Homo sapiens), P00519 [F317I] (P00519 whole entry F317I): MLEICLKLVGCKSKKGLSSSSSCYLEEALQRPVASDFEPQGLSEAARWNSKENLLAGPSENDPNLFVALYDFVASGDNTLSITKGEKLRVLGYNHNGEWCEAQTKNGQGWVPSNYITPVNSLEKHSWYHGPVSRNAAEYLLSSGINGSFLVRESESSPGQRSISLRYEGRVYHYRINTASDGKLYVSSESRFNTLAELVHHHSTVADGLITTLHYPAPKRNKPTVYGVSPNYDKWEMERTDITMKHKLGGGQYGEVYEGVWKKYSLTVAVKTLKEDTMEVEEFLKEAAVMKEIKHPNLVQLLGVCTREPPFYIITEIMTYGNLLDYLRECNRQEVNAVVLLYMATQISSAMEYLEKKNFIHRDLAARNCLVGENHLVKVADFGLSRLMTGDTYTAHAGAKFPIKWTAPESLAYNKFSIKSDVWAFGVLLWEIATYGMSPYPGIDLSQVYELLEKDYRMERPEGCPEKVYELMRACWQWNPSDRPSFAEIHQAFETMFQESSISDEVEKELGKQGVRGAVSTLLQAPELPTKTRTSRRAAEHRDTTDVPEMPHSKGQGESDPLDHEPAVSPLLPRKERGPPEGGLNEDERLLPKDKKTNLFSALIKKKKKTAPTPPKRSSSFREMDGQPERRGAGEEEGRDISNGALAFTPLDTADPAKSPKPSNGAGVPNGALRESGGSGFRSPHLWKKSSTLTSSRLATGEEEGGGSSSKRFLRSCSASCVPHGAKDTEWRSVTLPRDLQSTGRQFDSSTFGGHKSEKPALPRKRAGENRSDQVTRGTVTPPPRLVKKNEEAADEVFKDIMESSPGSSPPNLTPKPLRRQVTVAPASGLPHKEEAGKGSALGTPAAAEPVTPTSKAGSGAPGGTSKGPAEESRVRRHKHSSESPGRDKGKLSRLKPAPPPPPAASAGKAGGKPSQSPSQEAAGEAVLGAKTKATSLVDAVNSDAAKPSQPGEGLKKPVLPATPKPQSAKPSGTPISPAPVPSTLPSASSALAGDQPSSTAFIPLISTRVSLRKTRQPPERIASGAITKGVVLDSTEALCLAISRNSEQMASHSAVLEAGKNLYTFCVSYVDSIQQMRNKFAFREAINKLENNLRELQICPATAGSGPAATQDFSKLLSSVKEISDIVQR
Chain of Serine/threonine-protein kinase SIK1 (Homo sapiens) (P57059 whole entry): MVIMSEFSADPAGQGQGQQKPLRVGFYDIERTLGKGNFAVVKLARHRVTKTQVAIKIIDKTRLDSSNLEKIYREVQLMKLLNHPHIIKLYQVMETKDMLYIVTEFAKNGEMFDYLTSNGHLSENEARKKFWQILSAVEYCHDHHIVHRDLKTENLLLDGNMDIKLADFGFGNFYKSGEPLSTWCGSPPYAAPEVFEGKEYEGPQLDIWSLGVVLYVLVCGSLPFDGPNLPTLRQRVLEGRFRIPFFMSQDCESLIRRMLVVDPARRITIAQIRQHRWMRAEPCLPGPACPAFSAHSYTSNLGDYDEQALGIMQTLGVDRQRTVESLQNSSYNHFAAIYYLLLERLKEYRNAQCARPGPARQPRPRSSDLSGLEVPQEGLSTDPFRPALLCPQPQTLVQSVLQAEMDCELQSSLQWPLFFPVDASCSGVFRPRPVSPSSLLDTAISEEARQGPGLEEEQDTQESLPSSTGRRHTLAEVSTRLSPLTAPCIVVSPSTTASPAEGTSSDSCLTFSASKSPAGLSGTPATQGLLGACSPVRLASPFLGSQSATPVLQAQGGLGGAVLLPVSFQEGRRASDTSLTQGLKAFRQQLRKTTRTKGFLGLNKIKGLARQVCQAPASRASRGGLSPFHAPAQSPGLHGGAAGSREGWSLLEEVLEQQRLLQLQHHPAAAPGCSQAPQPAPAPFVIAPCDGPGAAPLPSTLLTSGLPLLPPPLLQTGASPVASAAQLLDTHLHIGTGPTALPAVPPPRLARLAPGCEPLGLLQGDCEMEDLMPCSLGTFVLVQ

C[C@@H]1CN(c2cc(-c3n[nH]c4ccc(OC5(C)CC5)cc34)ncn2)C[C@H](C)O1 [MLi-2]
inactive: residual activity [1, 17] 80% | residual activity [2, 17] 88% | residual activity [3, 17] 93% | residual activity [4, 17] 80% | residual activity [5, 17] 100% | residual activity [6, 17] 85% | residual activity [7, 17] 100% | residual activity [8, 17] 100% | residual activity [9, 17] 100% | residual activity [10, 17] 100% | residual activity [11, 17] 81% | residual activity [12, 17] 97% | residual activity [13, 17] 100% | residual activity [14, 17] 84% | inhibition [15] -4.76% | inhibition [16] -2.29%

C[C@@H]1CN(c2cc(-c3nn(C)c4ccc(OC5(C)CC5)cc34)ncn2)C[C@H](C)O1 [MLi-2-NC]
inactive: residual activity [1, 18] 75% | residual activity [2, 18] 100% | residual activity [3, 18] 100% | residual activity [4, 18] 84% | residual activity [5, 18] 100% | residual activity [6, 18] 89% | residual activity [7, 18] 100% | residual activity [8, 18] 100% | residual activity [9, 18] 100% | residual activity [10, 18] 100% | residual activity [11, 18] 84% | residual activity [12, 18] 84% | residual activity [13, 18] 96% | residual activity [14, 18] 63% | inhibition [15] -6.76% | inhibition [16] -3.49%

Reference: ChEMBL document CHEMBL4507291 (2021)
